Tests used:
[1] = test system: histone deacetylase (SEQ ID NO:2); assay: Histone deacetylase assay with nuclear extract of recombinant HEK293 cells (3H-acetylated chicken core histones); assay type: biochemical, human; conditions: TSA 1 μM; 30° C. for 90 minutes; released radioactivity
Description: Carboxy-terminal myc tagged histone deacetylase (SEQ ID NO:2) was cloned into a pcDNA3.1 vector and transfected into HEK293 cells. Recombinant clones were isolated and analyzed for histone deacetylase (HDAC) activity using the following procedure. Eight million recombinant or control cells were rinsed in 10 ml. of cold PBS, scraped, and spun at 500× g for 5 minutes. The cell pellet was rinsed with cold PBS and transferred to an Eppendorf tube. Nuclei were prepared by lysing the cells in 1 ml of Buffer A (10 mM HEPES, pH 7.5, 10 mM KCl, 1.5mM MgCl2, 0.5% NP40 and a cocktail of protease inhibitors without EDTA) on ice for 30 minutes. The lysate was spun at 1500× g for 5 minutes, then the supernatant was discarded. The pellet was washed in Buffer A without NP40. The nuclear pellet was sonicated three times for 5 seconds each on ice in 0.5 ml of 20 mM HEPES pH7.5, 1.5mM MgCl2, 10% glycerol and a cocktail of protease inhibitors without EDTA. The nuclear lysate was spun at 100,000× g for 30 min. Fifty μl aliquots of supernantant were stored at −80° C.
A HDAC assay was carried out in 100 μL of 25mM HEPES pH 7.5 buffer containing 0.1 mg/ml BSA, 1 mM MgCl2, 0.005% Triton X-100, ^3H-acetylated chicken core histones, and varying (0.5 to 4 μg) amounts of nuclear extracts at 30° C. for 90 minutes. […] Released radioactivity was counted as a measure of HDAC activity. […]

[2] = test system: human histone deacetylase; assay: Expression of human histone deacetylase in oligonucleotide-treated HCT116 cells, by Western blotting; assay type: cell-based; conditions: oligonucleotide 10 μM once per day for seven days
Description: The cell line used for testing is the human colon cancer cell line HCT116. Cells are cultured in RPMI-1640 with 10-15% fetal calf serum at a concentration of 10,000 cells per milliliter in a volume of 0.5 ml and kept at 37° C. in a 95% air/5%CO2 atmosphere. Phosphorothioate oligoribonucleotides are synthesized on an Applied Biosystems Model 380B DNA synthesizer using phosphoroamidite chemistry. A sequence of 24 bases complementary to the nucleotides at position 1 to 24 of SEQ ID NO: 1 is used as the test oligonucleotide. As a control, another (random) sequence is used: 5'-[NT] ID NO:23). Following assembly and deprotection, oligonucleotides are ethanol-precipitated twice, dried, and suspended in phosphate buffered saline at the desired concentration. Purity of the oligonucleotides is tested by capillary gel electrophoresis and ion exchange HPLC. The purified oligonucleotides are added to the culture medium at a concentration of 10 μM once per day for seven days. […] This effect is not observed with the control oligonucleotide. After 3 to 7 days, the number of cells in the cultures is counted using an automatic cell counter. The number of cells in cultures treated with the test oligonucleotide (expressed as 100%) is compared with the number of cells in cultures treated with the control oligonucleotide.

CC(/C=C/C(=O)NO)=C\[C@@H](C)C(=O)c1ccc(N(C)C)cc1 [TSA, Trichostatin A]
inhibition of HDAC activity of recombinant nuclear extract [1]: inhibited

control oligonucleotide: Control (random) sequence: 5′-TCAACTGACTAGATGTACATGGAC-5′ (SEQ ID NO:23) (TCAACTGACTAGATGTACATGGAC; listed as DNA, chemistry not fully specified)
expression of human histone deacetylase as determined by Western blotting [2]: not observed
